Target: T1, AR protein in VCaP cells (Homo sapiens, UniProt P10275)
T1 construct: endogenous in cells; host or cells: VCaP cells
T1 sequence (P10275 1-920): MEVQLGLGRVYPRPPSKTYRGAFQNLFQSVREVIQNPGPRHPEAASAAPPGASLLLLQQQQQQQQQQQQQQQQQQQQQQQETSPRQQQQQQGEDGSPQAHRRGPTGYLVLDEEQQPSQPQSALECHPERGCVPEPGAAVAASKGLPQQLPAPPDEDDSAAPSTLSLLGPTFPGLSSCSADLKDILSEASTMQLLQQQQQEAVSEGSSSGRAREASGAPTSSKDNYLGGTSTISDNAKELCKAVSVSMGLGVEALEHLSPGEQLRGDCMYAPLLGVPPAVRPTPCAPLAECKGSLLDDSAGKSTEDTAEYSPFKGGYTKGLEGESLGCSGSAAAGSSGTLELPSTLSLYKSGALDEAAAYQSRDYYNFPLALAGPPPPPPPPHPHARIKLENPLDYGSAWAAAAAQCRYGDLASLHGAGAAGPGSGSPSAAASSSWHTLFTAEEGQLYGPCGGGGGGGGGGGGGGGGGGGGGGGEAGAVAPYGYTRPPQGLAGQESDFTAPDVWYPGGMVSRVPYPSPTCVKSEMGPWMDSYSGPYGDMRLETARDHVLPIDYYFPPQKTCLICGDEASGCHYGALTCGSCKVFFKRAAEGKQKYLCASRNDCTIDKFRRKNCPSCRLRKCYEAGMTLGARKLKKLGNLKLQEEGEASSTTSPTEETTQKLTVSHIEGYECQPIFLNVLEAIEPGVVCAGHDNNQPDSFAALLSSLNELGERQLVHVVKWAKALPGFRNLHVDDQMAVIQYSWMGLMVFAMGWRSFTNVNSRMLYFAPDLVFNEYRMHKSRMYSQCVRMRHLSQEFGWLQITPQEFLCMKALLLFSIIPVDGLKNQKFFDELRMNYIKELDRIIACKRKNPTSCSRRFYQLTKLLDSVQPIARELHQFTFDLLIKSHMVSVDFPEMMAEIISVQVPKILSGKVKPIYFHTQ
Test: VCAP AR Degradation Assay (AR ELISA, 24 h)
Format: cell-based
Conditions: for Y (lowest measured AR level normalized to DMSO control): AR degradation efficiency; for DC50: concentration of compound when AR level = 50% of DMSO control, read-out: DC50
Description: VCAP AR Degradation Assay.
Test compounds were pre-dispensed into a Corning CellBind 96-well clear bottom plate (Cat #3300) using an acoustic dispenser to make a 10-point concentration series at 1:3 dilution for each compound. The final top concentration of each compound was […]. DMSO at a final concentration of 0.1% was used as a control. VCaP cells cultured in DMEM with 8% fetal bovine serum (FBS) were seeded at 50K cells per well in a 200 μL volume into the compound plate and incubated at 37° C. in a CO2 incubator for 24 h. The medium was carefully removed from the cells and the plate was placed on ice. One hundred […] of ice-cold 1× cell lysis buffer from Cell Signaling Technologies (Cat #9803) was added to each well of the cells and the plate was incubated at 4° C. on a shaker for 1 h. Fifteen […] of cell lysate was used for AR ELISA detection using a PathScan Total Sandwich AR ELISA kit (Cell Signaling Technology, Cat #12580). AR levels in compound-treated wells were normalized to that of DMSO control and expressed as percent of control (PoC) (y). A Four Parameter Logistic Model (Sigmoidal Dose-Response Model) was used to determine the compound's DC50, and EC50, using the following equation: y=(A+((B−A)/(1+((C/x)^D)))) • A=YMin (lowest AR level normalized to DMSO control in response to compound • treatment, as determined by curve fit) • B=YMax (maximum AR level as determined by curve fit) • C=EC50 • D=Hill Slope • x=compound concentration • EC50=the concentration of compound when y=(YMax−YMin)/2 • DC50=the concentration of the compound when y=50% of DMSO control (50% AR degradation) • y=AR protein level normalized to DMSO control
The lowest measured AR level normalized to DMSO control in response to compound treatment, termed Y value, was used to characterize the compound-mediated AR degradation efficiency.

Compound | Y (lowest measured AR level normalized to DMSO control) | DC50
CC1(C)C(=O)N(c2cnc(C#N)c(C(F)(F)F)c2)C(=S)N1c1ccc(OCC2CCN(CC(=O)Nc3cccc(NC4CCC(=O)NC4=O)c3)CC2)cc1 (centres unmarked) [Cmpd 6, 2-(4-((4-(3-(6-cyano-5-(trifluoromethyl)pyridin-3-yl)-5,5-dimethyl-4-oxo-2-thioxoimidazolidin-1-yl)phenoxy)methyl)piperidin-1-yl)-N-(3-(2,6-dioxopiperidin-3-ylamino)phenyl)acetamide] | ** (25%<Y<=35%) | 100 to 500 nM
CCc1cc(N2C(=S)N(c3cnc(C#N)c(C(F)(F)F)c3)C(=O)C2(C)C)ccc1OCC[C@@H]1CCN(CC(=O)Nc2cccc(NC3CCC(=O)NC3=O)c2)[C@H](C)C1 (stereo partly drawn) [Cmpd 78, 2-((2R,4R)-4-(2-(4-(3-(6-cyano-5-(trifluoromethyl)pyridin-3-yl)-5,5-dimethyl-4-oxo-2-thioxoimidazolidin-1-yl)-2-ethylphenoxy)ethyl)-2-methylpiperidin-1-yl)-N-(3-(2,6-dioxopiperidin-3-ylamino)phenyl)acetamide] | * (0<Y<=25%) | < 100 nM
CCc1cc(N2C(=S)N(c3cnc(C#N)c(C(F)(F)F)c3)C(=O)C23CCC3)ccc1OCCC1CCN([C@@H](C)C(=O)Nc2cc(NC3CCC(=O)NC3=O)ccc2F)CC1 (stereo partly drawn) [Cmpd 85, (2S)-2-(4-(2-(4-(7-(6-cyano-5-(trifluoromethyl)pyridin-3-yl)-8-oxo-6-thioxo-5,7-diazaspiro[3.4]octan-5-yl)-2-ethylphenoxy)ethyl)piperidin-1-yl)-N-(5-(2,6-dioxopiperidin-3-ylamino)-2-fluorophenyl)propanamide] | * (0<Y<=25%) | 100 to 500 nM
CC(F)(F)c1cc(N2C(=S)N(c3cnc(C#N)c(C(F)(F)F)c3)C(=O)C2(C)C)ccc1OCCC1CCN(CC(=O)Nc2cc(F)cc(NC3CCC(=O)NC3=O)c2)CC1 (centres unmarked) [Cmpd 22, 2-(4-(2-(4-(3-(6-cyano-5-(trifluoromethyl)pyridin-3-yl)-5,5-dimethyl-4-oxo-2-thioxoimidazolidin-1-yl)-2-(1,1-difluoroethyl)phenoxy)ethyl)piperidin-1-yl)-N-(3-(2,6-dioxopiperidin-3-ylamino)-5-fluorophenyl)acetamide] | * (0<Y<=25%) | < 100 nM
C[C@H](C(=O)Nc1cccc(NC2CCC(=O)NC2=O)c1)N1CCC(CCOc2ccc(N3C(=S)N(c4cnc(C#N)c(C(F)(F)F)c4)C(=O)C3(C)C)cc2CCF)CC1 (stereo partly drawn) [Cmpd 72, (2R)-2-(4-(2-(4-(3-(6-cyano-5-(trifluoromethyl)pyridin-3-yl)-5,5-dimethyl-4-oxo-2-thioxoimidazolidin-1-yl)-2-(2-fluoroethyl)phenoxy)ethyl)piperidin-1-yl)-N-(3-(2,6-dioxopiperidin-3-ylamino)phenyl)propanamide] | * (0<Y<=25%) | < 100 nM
CC1(C)C(=O)N(c2ccc(C#N)c(C(F)(F)F)c2)C(=S)N1c1ccc(OCCC2CCN(CC(=O)Nc3cc(Cl)cc(NC4CCC(=O)NC4=O)c3)CC2)c(Cl)c1 (centres unmarked) [Cmpd 8, 2-(4-(2-(2-chloro-4-(3-(4-cyano-3-(trifluoromethyl)phenyl)-5,5-dimethyl-4-oxo-2-thioxoimidazolidin-1-yl)phenoxy)ethyl)piperidin-1-yl)-N-(3-chloro-5-(2,6-dioxopiperidin-3-ylamino)phenyl)acetamide] | * (0<Y<=25%) | 100 to 500 nM
CCc1cc(N2C(=S)N(c3cnc(C#N)c(C(F)(F)F)c3)C(=O)C2(C)C)ccc1OCCC1(C)CCN(CC(=O)Nc2cc(Cl)cc(NC3CCC(=O)NC3=O)c2)CC1 (centres unmarked) [Cmpd 64, N-(3-chloro-5-(2,6-dioxopiperidin-3-ylamino)phenyl)-2-(4-(2-(4-(3-(6-cyano-5-(trifluoromethyl)pyridin-3-yl)-5,5-dimethyl-4-oxo-2-thioxoimidazolidin-1-yl)-2-ethylphenoxy)ethyl)-4-methylpiperidin-1-yl)acetamide] | * (0<Y<=25%) | 100 to 500 nM
CCc1cc(N2C(=S)N(c3cnc(C#N)c(C(F)(F)F)c3)C(=O)C2(C)C)ccc1OCCC1CCN([C@@H](C)C(=O)Nc2cc(Cl)cc(NC3CCC(=O)NC3=O)c2)CC1 (stereo partly drawn) [Cmpd 23, (2S)-N-(3-chloro-5-(2,6-dioxopiperidin-3-ylamino)phenyl)-2-(4-(2-(4-(3-(6-cyano-5-(trifluoromethyl)pyridin-3-yl)-5,5-dimethyl-4-oxo-2-thioxoimidazolidin-1-yl)-2-ethylphenoxy)ethyl)piperidin-1-yl)propanamide] | * (0<Y<=25%) | < 100 nM
CCc1cc(N2C(=S)N(c3cnc(C#N)c(C(F)(F)F)c3)C(=O)C23CCC3)ccc1OCCC1CCN(CC(=O)Nc2cccc(NC3CCC(=O)NC3=O)c2)C(C)(C)C1 (single isomer, unassigned) [Cmpd 54] | * (0<Y<=25%) | < 100 nM
CCc1cc(N2C(=S)N(c3cnc(C#N)c(C(F)(F)F)c3)C(=O)C2(C)C)ccc1OCC1CCN(CC(=O)Nc2cc(Cl)cc(NC3CCC(=O)NC3=O)c2)CC1 (centres unmarked) [Cmpd 81, N-(3-chloro-5-(2,6-dioxopiperidin-3-ylamino)phenyl)-2-(4-((4-(3-(6-cyano-5-(trifluoromethyl)pyridin-3-yl)-5,5-dimethyl-4-oxo-2-thioxoimidazolidin-1-yl)-2-ethylphenoxy)methyl)piperidin-1-yl)acetamide] | ** (25%<Y<=35%) | < 100 nM
CCc1cc(N2C(=S)N(c3cnc(C#N)c(C(F)(F)F)c3)C(=O)C23CCC3)ccc1OCCC1CCN([C@H](C)C(=O)Nc2cc(NC3CCC(=O)NC3=O)ccc2F)CC1 (stereo partly drawn) [Cmpd 86, (2R)-2-(4-(2-(4-(7-(6-cyano-5-(trifluoromethyl)pyridin-3-yl)-8-oxo-6-thioxo-5,7-diazaspiro[3.4]octan-5-yl)-2-ethylphenoxy)ethyl)piperidin-1-yl)-N-(5-(2,6-dioxopiperidin-3-ylamino)-2-fluorophenyl)propanamide] | * (0<Y<=25%) | 100 to 500 nM
CC(F)(F)c1cc(N2C(=S)N(c3cnc(C#N)c(C(F)(F)F)c3)C(=O)C2(C)C)ccc1OCCC1CCN(CC(=O)Nc2cc(Cl)cc(NC3CCC(=O)NC3=O)c2)CC1 (centres unmarked) [Cmpd 24, N-(3-chloro-5-(2,6-dioxopiperidin-3-ylamino)phenyl)-2-(4-(2-(4-(3-(6-cyano-5-(trifluoromethyl)pyridin-3-yl)-5,5-dimethyl-4-oxo-2-thioxoimidazolidin-1-yl)-2-(1,1-difluoroethyl)phenoxy)ethyl)piperidin-1-yl)acetamide] | * (0<Y<=25%) | 100 to 500 nM
CCc1cc(N2C(=S)N(c3ccc(C#N)c(C(F)(F)F)c3)C(=O)C2(C)C)ccc1OCCC1CCN(CC(=O)Nc2cccc(NC3CCC(=O)NC3=O)c2)CC1 (centres unmarked) [Cmpd 17, 2-(4-(2-(4-(3-(4-cyano-3-(trifluoromethyl)phenyl)-5,5-dimethyl-4-oxo-2-thioxoimidazolidin-1-yl)-2-ethylphenoxy)ethyl)piperidin-1-yl)-N-(3-(2,6-dioxopiperidin-3-ylamino)phenyl)acetamide] | * (0<Y<=25%) | < 100 nM

Source: patent US11325889B2, “Substituted 3-((3-aminophenyl)amino)piperidine-2,6-dione compounds, compositions thereof, and methods of treatment therewith” (Celgene Corporation, priority 2018, dated 2022)
